In experiment [1] the test system is collagen type II induced arthritis. In words: Collagen-induced arthritis, Example 2B: limb involvement. The format is in vivo, mouse. To be noted: 2 mg/kg body weight i.p. The procedure:
(§1) Male DBA/1 mice were immunized intradermally with 100 μg of bovine type II collagen emulsified in complete Freund's adjuvant (Difco Laboratories, East Molsey, UK). The mean day of onset of arthritis was approximately one month after immunization. After the onset of clinically evident arthritis (erythema and/or swelling), mice were injected intraperitoneally with therapeutic agents. Arthritis was monitored for clinical score and paw swelling (measured with calipers) for 10 days, after which the mice were sacrificed and joints were processed for histology. Sera were collected for analysis on day 10. Therapeutic agents were administered on day 1 (onset), day 4 and day 7. The therapeutic agents included TNF receptor/IgG fusion protein (p55-sf2), anti-TNF antibody, anti-CD4 antibody, and methylprednisolone acetate.
Using the Experimental Procedure described above, groups of mice were subjected to treatment with TNF receptor/IgG protein (2 μg) (18 mice), TNF receptor/IgG protein (20 μg) (18 mice), TNF receptor/IgG protein (100 μg) (12 mice), anti-TNF monoclonal antibody (mAb) (300 μg) (17 mice), methylprednisolone acetate (6 mice), an irrelevant human IgG1 monoclonal antibody (mAb) (6 mice), or saline (control). The TNF receptor/IgG fusion protein, herein referred to as p55-sf2, (Butler et al., Cytokine (in press): (1994), was provided by Centocor, Inc., Malvern Pa.; it is dimeric and consists of the human p55 TNF receptor (extracellular domains) fused to a partial J sequence followed by the whole of the constant region of the hunan IgG1 heavy chain, itself associated with the constant region of a kappa light chain. The […] antibody was TN3-19.12, a neutralizing hamster IgG1 anti-TNFα/β monoclonal antibody (Sheehan, K. C. et al., J. Immunology 142:3884-3893 (1989)), and was provided by R. Schreiber, Washington University Medical School (St. Louis, Mo., USA), in conjunction with Celltech (Slough, UK). […]

Experiment [2] shares this test system. In words: Collagen-induced arthritis, Example 2B: histology of PIP joints. The experiment is classed as in vivo, mouse. The conditions noted are these: 2 mg/kg body weight i.p. The procedure: as §1
Using the Experimental Procedure described above, groups of mice were subjected to treatment with TNF receptor/IgG protein (2 μg) (18 mice), TNF receptor/IgG protein (20 μg) (18 mice), TNF receptor/IgG protein (100 μg) (12 mice), anti-TNF monoclonal antibody (mAb) (300 μg) (17 mice), methylprednisolone acetate (6 mice), an irrelevant human IgG1 monoclonal antibody (mAb) (6 mice), or saline (control). […]

In the case of `CC(=O)OCC(=O)[C@@]1(O)CC[C@H]2[C@@H]3C[C@H](C)C4=CC(=O)C=C[C@]4(C)[C@H]3[C@@H](O)C[C@@]21C` [Methylprednisolone acetate, methylprednisolone acetate], the “Increase (%) in limbs affected” value in experiment [1] came out at 33%. For the same compound, the “Limbs Affected (mean ± SEM) Day 1” value in experiment [1] (Day 1) is on record as 1.00 ± 0.00. Also, the “Limbs Affected (mean ± SEM) Day 10” value in experiment [1] (Day 10) was determined as 1.50 ± 0.22. Also, in experiment [2], the “PIP Joints with Erosions (%)” value is “(67%)” and the “PIP Joints with Erosions (number/total)” value was 4/6.

The values above are taken from patent US20020068057A1, “TREATMENT OF AUTOIMMUNE AND INFLAMMATORY DISORDERS” (priority 1996, published 2002).
